≈ marks a conversion by molar mass, not a printed value. Where “and” joins values, the source holds several entries; their conditions need not be identical. Equal entries are not always repeated.
Legend:
[1] = system: non-invasive fungus-induced rhinosinusitis patients; assay: Patients returning during a one week period on amphotericin B nasal irrigations (Table II); assay type: in vivo, human; parameters: key to Endoscopy Score A: endoscopy stage 0 = no disease to 3 = polyps filling nasal cavity; settings: A = after antifungal treatment, one patient per line
Source text: (§1) Stage 0: no evidence of disease
(§2) Stage 1: polypoid changes/polyps seen by endoscopy only
(§3) Stage 2: polyps in the middle meatus
(§4) Stage 3: polyps filling the nasal cavity
(§5) Patient Symptom Evaluation
(§6) Stage −2: very bad/much worse
(§7) Stage 0: baseline/no change
(§8) Stage 2: very good/free of symptoms
Only previously seen patients that were instructed to use the antifungal amphotericin B nasal irrigations were entered into this study.
During a one week period, twenty patients returned to the physician's office (Table II). The average age of the returning patients was 47 years (range 16-74 years). The patients were using the amphotericin B irrigations for an average duration of about six months (range 1-16 months). […] In addition, some patients were using topical and systemic steroid therapy. Further, some patients were using an antibiotic nasal irrigation in addition to the antifungal irrigations. The antibacterial solution contained 80 mg gentamicin per L saline (Wilson's solution). Some patients mixed the antibacterial solution with the antifungal solution and then performed the nasal irrigations while others used each solution separately in a sequential manner. Some patients also had other diseases including asthma (15 of the 20 patients) and colitis (2 of the 20 patients).

Geotrichum = assay: MIC, macro broth dilution technique (NCCLS) on patient fungal isolates; assay type: cell-based; settings: 48 hour MIC reading; isolate from rhinosinusitis patient
Procedure: (§9) The following procedure was used to determine effective antifungal agents as well as effective concentrations of antifungal agents such that the fungal organisms isolated from patients can be prevented from growing or killed.
(§10) Seventeen fungal isolates were collected from eight rhinosinusitis patients and tested for susceptibility against amphotericin B, ketoconazole, and itraconazole. Each antifungal agent was tested on these fungal isolates using the macro broth dilution technique according to the National Committee on Clinical Laboratory Standards (NCCLS) protocol. […] The results from this procedure provided an estimate of the efficacy of antifungal agents against specific fungal isolates in vitro.

Trichoderma = assay: as above; assay type: cell-based; settings: 48 hour MIC reading; isolate from rhinosinusitis patient
Procedure: as §9, §10

[2] = system: non-invasive fungus-induced rhinosinusitis patients; assay: Amphotericin B irrigations in patients without previous nasal surgery (Example 3); assay type: in vivo, human; settings: patient; for symptom score after treatment: score −1 before
Source text: A person was diagnosed with non-invasive fungus-induced rhinosinusitis and instructed to perform amphotericin B irrigations twice a day.
A person was diagnosed with non-invasive fungus-induced rhinosinusitis and instructed to perform amphotericin B irrigations twice a day, which was later increased to four times a day.
A person was diagnosed with non-invasive fungus-induced rhinosinusitis and instructed to perform amphotericin B irrigations twice a day. This patient had been given intramuscular steroid shots every 3 to 8 months with the last shot being administered about seven months prior to starting the amphotericin B irrigations.

[3] = system: non-invasive fungus-induced rhinosinusitis patients; assay: Amphotericin B nasal irrigation study, three month follow-up (Example 2); assay type: in vivo, human
Source text: In addition to patient interviewing, CT scan analysis, visual examination, and fungal culture analysis, two types of evaluations were used to score the success of the treatment: an endoscopic evaluation and a patient symptom evaluation. These evaluations were scored as follows:
as §1, §2, §3, §4, §5, §6, §7, §8

[4] = system: non-invasive fungus-induced rhinosinusitis patient; assay: Eosinophil count in mucosal biopsies after antifungal treatment (Example 4); assay type: in vivo, human; settings: person
rhinosinusitis patient = assay: Single patient study, one-sided then two-sided amphotericin B irrigation, RAST assay to Alternaria; assay type: in vivo, human
Procedure: Only the left nasal-paranasal side, however, received surgery as well as intra-operative and post-operative treatment with about 20 mL of an amphotericin B solution (100 mg/L) two to four times daily.

[5] = system: non-invasive fungus-induced rhinosinusitis patients; assay: Itraconazole nasal irrigations in rhinosinusitis patients (Example 7); assay type: in vivo, human
Procedure: Three non-invasive fungus-induced rhinosinusitis patients (person, person, and person) were instructed to perform nasal irrigation with an itraconazole solution. The itraconazole solution contained about 100 mg of itraconazole per L of solution (10% PEG-400 in sterile water) and was prepared as described herein. […] Each patient reported marked improvement in symptoms within two weeks of starting the itraconazole irrigations (symptom scores: −1 to +2 and −1 to +1).
After treatment with itraconazole, that patient reported symptom improvement (symptom score: from −1 to 0).

[6] = system: patients with previously diagnosed chronic asthma; assay: Chronic asthma symptoms in patients of the Example 2 study (Example 5); assay type: in vivo, human
Source text: One hundred and thirty-two consecutive rhinosinusitis patients were entered into a study to evaluate the use of an antifungal agent to treat non-invasive fungus-induced rhinosinusitis. After diagnostic analysis, 125 of the 132 patients (95%) had the following criteria: (1) presence of observable disease within the nasal-paranasal anatomy as evidenced by a CT scan, (2) presence of allergic mucus as evidenced by histologic evaluation of a surgical specimen, and (3) presence of fungal organisms within nasal-paranasal mucus as evidenced by the ability to culture fungal organisms from a mucus sample. The 125 non-invasive fungus-induced rhinosinusitis patients were started on an antifungal treatment of about 20 mL of an amphotericin B solution per nostril; two to four times daily for at least three months. The concentration of the amphotericin B solution was about 100 mg per liter of saline or water. A 20 mL bulb was used by the patient to mucoadminister the amphotericin B solution into the patient's nasal-paranasal anatomy. Data were compiled for 53 of the patients who had returned for their three month follow-up analysis.

[7] = system: fungal organisms within their mucus; assay: Examination of mucus samples of non-responding patients for resistance; assay type: cell-based; settings: five of the nine non-responding patients with available samples, all five
Source text: Eleven of the 53 patients went from endoscopic evaluation stage 2 or 3 to stage 1 after three months. […] Five of the nine non-responding patients had previously collected mucus samples that were available for examination.

Penicillium = assay: MIC, macro broth dilution technique (NCCLS) on patient fungal isolates; assay type: cell-based; settings: 48 hour MIC reading; isolates from rhinosinusitis patients; one isolate per table line
Procedure: as §9, §10

[8] = Oral itraconazole capsule, fraction remaining in the bowel lumen (Example 10); assay type: in vivo, human; settings: 100 mg capsule before bedtime, at least two hours after last meal, without cola
Source text: Three out of five consecutive patients with chronic rhinosinusitis reported having a history of colitis. […] Each patient was instructed to take the capsule before bedtime a minimum of two hours after their last meal and without any cola. Food and cola beverages increase absorption of the drug.

chronic asthma patient = assay: Itraconazole nasal irrigations in an asthma patient, symptoms and pulmonary function (Example 8); assay type: in vivo, human
Procedure: Sputum and nasal-paranasal mucus samples were collected and analyzed.
The concentration of the itraconazole solution was about 100 mg per liter. After a few weeks, the patient took their last course of systemic steroids. About two months after stopping the systemic steroids, the patient also stopped using the topical steroids as well as the bronchodilator.

Cladosporium = assay: MIC, macro broth dilution technique (NCCLS) on patient fungal isolates; assay type: cell-based; settings: 48 hour MIC reading; isolates from rhinosinusitis patients; one isolate per table line
Procedure: as §9, §10

[9] = after three months, about 20 mL of 100 mg/L solution per nostril two to four times daily
[10] = after treatment, three month follow-up
[11] = after seven months versus before treatment
[12] = sixteen days after starting itraconazole irrigations, score 1 before

Compound: C[C@@H]1[C@H](O)[C@@H](C)/C=C/C=C/C=C/C=C/C=C/C=C/C=C/[C@H](O[C@@H]2O[C@H](C)[C@@H](O)[C@H](N)[C@@H]2O)C[C@@H]2O[C@](O)(C[C@@H](O)C[C@@H](O)[C@H](O)CC[C@@H](O)C[C@@H](O)CC(=O)O[C@H]1C)C[C@H](O)[C@H]2C(=O)O [Amphotericin B, amphotericin B]
- Endoscopy Score A ([1]; irrigations 1-16 months, 1-2 x day, 0 no evidence of disease, 1 polypoid changes/polyps by endoscopy only, 2 polyps in middle meatus, 3 polyps filling nasal cavity): 0 (10×) and 3 (5×) and 1 (2×)
- Symptom Score A ([1]; −2 very bad/much worse, −1 bad/worse, 0 baseline/no change, 1 good/improved, 2 very good/free of symptoms): +1 (6×) and +2 (6×) and 0 (6×) and −2 and 1
- MIC (Geotrichum): 0.1 µg/mL (≈ 0.108 µM)
- MIC (Trichoderma): 4 µg/mL (≈ 4.33 µM)
- endoscopic score after treatment ([2]; irrigations twice a day for four months, score 0 before): 0
- symptom score after treatment ([2]; irrigations twice a day for four months): +1
- endoscopic score after treatment ([2]; irrigations twice a day for fourteen months, score 3 before): 0
- symptom score after treatment ([2]; irrigations twice a day for fourteen months): +2
- endoscopic score after treatment ([2]; irrigations twice, later four times a day, sixteen months, score 1 before): 0
- symptom score after treatment ([2]; irrigations twice, later four times a day, sixteen months): +2
- CT scan finding, patient with bilateral rhinosinusitis ([3]; after four months, 20 mL of 100 mg/L solution per nostril two times daily, no recent surgery, no steroids, FIG. 1 and 2): complete disappearance of opacity and symptoms characteristic of rhinosinusitis
- number of the 33 stage 0 cases confirmed by CT scans ([3]; after three months): Six
- number of the 53 patients that went from endoscopic evaluation stage 2 or 3 to stage 0 (no evidence of disease) [3, 9]: 33
- number of the 53 patients that went from endoscopic evaluation stage 2 or 3 to stage 1 [3, 9]: Eleven
- number of the 53 patients that did not respond to the treatment ([3]; after three months, endoscopic evaluation): nine
- number of the 53 patients giving themselves symptom stage 0 (baseline/no change) [3, 10]: six
- number of the 53 patients giving themselves symptom stage 1 (good/improved) [3, 10]: three
- number of the 53 patients giving themselves symptom stage 2 (very good/free of symptoms) [3, 10]: 44
- number of different fungal species in mucus after versus before antifungal treatment ([3]; several patients, fungal organism culturing, amphotericin B irrigation of Example 2): remarkably reduced
- eosinophil count in mucosal biopsies, all sinuses except the frontal ([4]; after nine months of irrigations twice a day): < 5%
- eosinophil count in the frontal sinus biopsy ([4]; after nine months of irrigations, frontal sinus obstructed, presumably not reached): 10%
- state of left paranasal sinuses at every post-operative visit (rhinosinusitis patient; left side surgery plus intra- and post-operative irrigation): clear of disease
- symptoms after treatment of both sides (rhinosinusitis patient; right side surgery and irrigation of both sides for about seven weeks): symptom-free
- adverse local reaction to nasal irrigations ([5]; third patient, amphotericin B irrigations): burning sensation
- number of the 28 patients that stopped taking their asthma medication ([6]; after starting antifungal treatment): 26
- number of the 37 asthmatic patients declaring an improvement or complete elimination of asthma symptoms ([6]; after three months of antifungal treatment (amphotericin B irrigation of Example 2)): 28
- pulmonary function test before versus after antifungal treatment ([6]; four of the 28 improved patients, all four): improved pulmonary function
- patients of the 23 formerly on systemic steroids that took steroids after starting antifungal treatment ([6]; human, in vivo): none
- susceptibility of fungal organisms in mucus of non-responding patients [7]: resistant

Compound: CCC(C)n1ncn(-c2ccc(N3CCN(c4ccc(OCC5COC(Cn6cncn6)(c6ccc(Cl)cc6Cl)O5)cc4)CC3)cc2)c1=O (stereo not drawn) [Itraconazole, itraconazole]
- MIC (Penicillium): 0.25 µg/mL (≈ 0.354 µM)
- itraconazole that should remain in the bowel lumen [8]: about 50%
- forced expiratory volume in 1 second (FEV1) after treatment (chronic asthma patient; after seven months of irrigations, 3.34 liter before treatment): 4.27 L
- forced vital capacity (FVC) after treatment (chronic asthma patient; after seven months of irrigations, 3.99 liter before treatment): 4.80 L
- maximal forced expiratory flow (FEFmax) after treatment (chronic asthma patient; after seven months of irrigations, 9.1 liter per second before treatment): 12.6 liter per second
- maximum voluntary ventilation (MVV) after treatment (chronic asthma patient; after seven months of irrigations, 119 liter per minute before treatment): 156 liter per minute
- improvement of MVV (chronic asthma patient; [11]): 31.90%
- increase of FEFmax (chronic asthma patient; [11]): 38.46%
- increase of FEV1 (chronic asthma patient; [11]): 27.84%
- increase of FVC (chronic asthma patient; [11]): 20.30%
- endoscopic score, left side [5, 12]: 1
- endoscopic score, right side [5, 12]: 0
- adverse local reaction to nasal irrigations ([5]; third patient, itraconazole irrigations): did not have any adverse local reaction
- symptom score after itraconazole irrigations ([5]; third patient, switched because of adverse reaction to amphotericin B, score −1 before): 0

Compound: CC(=O)N1CCN(c2ccc(OCC3COC(Cn4ccnc4)(c4ccc(Cl)cc4Cl)O3)cc2)CC1 (stereo not drawn) [Ketoconazole, ketoconazole]
- MIC (Penicillium): 3.13 µg/mL (≈ 5.89 µM)
- MIC (Cladosporium): 0.05 µg/mL (≈ 0.0941 µM)

From patent US20030091510A1, “METHODS FOR TREATING AND PREVENTING ASTHMA AND NON-INVASIVE FUNGUS-INDUCED RHINOSINUSITIS” (priority 1997, published 2003)
